Experimental data from patent US20050245399A1, “Pyrazole derivatives as herbicidal compositions containing them” (ISHIHARA SANGYO KAISHA, LTD., priority 2004, published 2005).

What was measured:
Assay type in all cases: in vivo
[1] = system: crabgrass (Digitaria sanguinalis L.), DIGSA; test: Test Example 2 post-emergence (foliage treatment) herbicidal activity, DIGSA; conditions: 63 g a.i./ha
Outline: (§1)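 A small sprayer delivered the diluted WP or EC formulation (500 L/ha water, 0.1% v/v spreader) over emerged seedlings in upland soil pots. Damage relative to untreated plants was graded visually from 0 to 100% three weeks or so later (days 20-23).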

[2] = system: wheat (Triticum aestivum L.), TRZAX; test: Test Example 2 post-emergence (foliage treatment) herbicidal activity, TRZAX; conditions: 63 g a.i./ha
Outline: (§2)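 Foliar spray of formulated compound (500 L/ha dilution water, 0.1% v/v spreader) onto young potted plants at defined leaf stages. Scored 0-100% by visual inspection 20-23 d post-spray.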

[3] = system: japanese ribbon wapato (Sagittaria pygmaea: SA GPY); test: Test Example 3 water application herbicidal activity (paddy), SAGPY; conditions: 63 g a.i./ha, water application under submerged condition, tubers planted, visually observed 14th day after application; 0 = untreated control, 100 = complete kill
Outline: (§3)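 Flooded paddy-soil pots in greenhouse; ECHOR and SCPJO sown, SAGPY tubers planted a day later, compound applied into 3–4 cm water at weeds' 0.5-leaf stage. Rice transplanted at 2-leaf stage, treated day 4 after transplanting. Visual growth control 0–100% at 14 days (weeds) and 21 days (rice) after application.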

[4] = system: prickly sida (Sida spinosa L.), SIDSP; test: Test Example 2 post-emergence (foliage treatment) herbicidal activity, SIDSP; conditions: 63 g a.i./ha
Outline: as §2

[5] = system: crabgrass (Digitaria sanguinalis L.): DIGSA; test: Test Example 1 pre-emergence herbicidal activity, DIGSA; conditions: Rate 63 g a.i./ha, visually observed 20th to 23rd day after application
Outline: (§4)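 Herbicidal effect in pre-emergence treatment: formulated compound sprayed at 500 L/ha water one day after sowing in upland field soil pots, with visual 0–100% growth-control scores recorded 20–23 days after application.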

[6] = system: barnyardgrass (Echinochloa crus-galli L.), ECHCG; test: Test Example 2 post-emergence (foliage treatment) herbicidal activity, ECHCG; conditions: 63 g a.i./ha
Outline: as §1

[7] = system: soybean (Glycine max Merr.), GLXMA; test: Test Example 2 post-emergence (foliage treatment) herbicidal activity, GLXMA; conditions: 63 g a.i./ha
Outline: as §2

[8] = system: velvetleaf (Abutilon theophrasti): ABUTH; test: Test Example 1 pre-emergence herbicidal activity, ABUTH; conditions: Rate 63 g a.i./ha, visually observed 20th to 23rd day after application
Outline: as §4

[9] = system: green foxtail (Setaria viridis L.): SETVI; test: Test Example 1 pre-emergence herbicidal activity, SETVI; conditions: Rate 63 g a.i./ha, visually observed 20th to 23rd day after application
Outline: as §4

[10] = system: rice (Oryza sativa L.), ORYSA; test: Test Example 2 post-emergence (foliage treatment) herbicidal activity, ORYSA; conditions: 63 g a.i./ha
Outline: as §1

[11] = system: redroot pigweed (Amaranthus retroflexus L.): AMARE; test: Test Example 1 pre-emergence herbicidal activity, AMARE; conditions: Rate 63 g a.i./ha, visually observed 20th to 23rd day after application
Outline: as §4

[12] = system: green foxtail (Setaria viridis L.), SETVI; test: Test Example 2 post-emergence (foliage treatment) herbicidal activity, SETVI; conditions: 63 g a.i./ha
Outline: as §2

[13] = system: prickly sida (Sida spinosa L.): SEDSP; test: Test Example 1 pre-emergence herbicidal activity, SIDSP; conditions: Rate 63 g a.i./ha, visually observed 20th to 23rd day after application
Outline: as §4

[14] = system: wheat (Triticum aestivum L.): TRZAX; test: Test Example 1 pre-emergence herbicidal activity, TRZAX; conditions: Rate 63 g a.i./ha, visually observed 20th to 23rd day after application
Outline: as §4

[15] = system: soybean (Glycine max Merr.): GLXMA; test: Test Example 1 pre-emergence herbicidal activity, GLXMA; conditions: Rate 63 g a.i./ha, visually observed 20th to 23rd day after application
Outline: as §4

[16] = system: rice (Oryza sativa L.): ORYSA; test: Test Example 1 pre-emergence herbicidal activity, ORYSA; conditions: Rate 63 g a.i./ha, visually observed 20th to 23rd day after application
Outline: as §4

[17] = system: barnyardgrass (Echinochloa crus-galli L.): ECHCG; test: Test Example 1 pre-emergence herbicidal activity, ECHCG; conditions: Rate 63 g a.i./ha, visually observed 20th to 23rd day after application
Outline: as §4

[18] = system: corn (Zea mays L.): ZEAMX; test: Test Example 1 pre-emergence herbicidal activity, ZEAMX; conditions: Rate 63 g a.i./ha, visually observed 20th to 23rd day after application
Outline: as §4

[19] = system: corn (Zea mays L.), ZEAMX; test: Test Example 2 post-emergence (foliage treatment) herbicidal activity, ZEAMX; conditions: 63 g a.i./ha
Outline: as §2

[20] = system: japanese bulrush (Scirpus juncoides: SCPJO); test: Test Example 3 water application herbicidal activity (paddy), SCPJO; conditions: 63 g a.i./ha, water application under submerged condition at 0.5 leaf stage, visually observed 14th day after application; 0 = untreated control, 100 = complete kill
Outline: as §3

[21] = system: rice (Oryza sativa L.: ORYSA); test: Test Example 3 water application herbicidal activity (paddy), transplanted rice ORYSA; conditions: 63 g a.i./ha, water application 4th day after transplantation of 2 leaf stage rice, visually observed 21st day after application; 0 = untreated control, 100 = complete kill
Outline: as §3

[22] = system: barnyardgrass (Echinochiloa oryzicola: ECHOR); test: Test Example 3 water application herbicidal activity (paddy), ECHOR; conditions: 63 g a.i./ha, water application under submerged condition at 0.5 leaf stage, visually observed 14th day after application; 0 = untreated control, 100 = complete kill
Outline: as §3

[23] = system: velvetleaf (Abutilon theophrasti), ABUTH; test: Test Example 2 post-emergence (foliage treatment) herbicidal activity, ABUTH; conditions: 63 g a.i./ha
Outline: as §2

[24] = system: redroot pigweed (Amaranthus retroflexus L.), AMARE; test: Test Example 2 post-emergence (foliage treatment) herbicidal activity, AMARE; conditions: 63 g a.i./ha
Outline: as §1

Row | SMILES | growth controlling degree, DIGSP [1] [%] | growth controlling degree, TRZAX [2] [%] | growth controlling degrees (%) SAGPY [3] [%] | growth controlling degree, SIDSP [4] [%] | Pre-emergence Herbicidal Activity DIGSP (growth controlling degree) [5] [%] | growth controlling degree, ECHCO [6] [%] | growth controlling degree, GLXMA [7] [%] | Pre-emergence Herbicidal Activity ABUTH (growth controlling degree) [8] [%] | Pre-emergence Herbicidal Activity SETVI (growth controlling degree) [9] [%] | growth controlling degree, ORYSA [10] [%] | Pre-emergence Herbicidal Activity AMARE (growth controlling degree) [11] [%] | growth controlling degree, SETVI [12] [%] | Pre-emergence Herbicidal Activity SIDSP (growth controlling degree) [13] [%] | Pre-emergence Herbicidal Activity TRZAX (growth controlling degree) [14] [%] | Pre-emergence Herbicidal Activity GLXMA (growth controlling degree) [15] [%] | Pre-emergence Herbicidal Activity ORYSA (growth controlling degree) [16] [%] | Pre-emergence Herbicidal Activity ECHCG (growth controlling degree) [17] [%] | Pre-emergence Herbicidal Activity ZEAMX (growth controlling degree) [18] [%] | growth controlling degree, ZEAMX [19] [%] | growth controlling degrees (%) SCPJO [20] [%] | also measured
1 | COc1cccc(C(=O)Nc2c(OC)c(Cl)cc(F)c2-c2nn(C)c(OC(F)F)c2Cl)c1 [Compound 1-28] | 100 | 40 | 100 | 90 | 100 | 100 | 98 | 100 | 100 | 95 | 100 | 100 | 100 | 20 | 20 | 60 | 80 | 0 | 90 | 80 | growth controlling degrees (%) ORYSA [21]: 50%; growth controlling degrees (%) ECHOR [22]: 100%; growth controlling degree, ABUTH [23]: 100%; growth controlling degree, AMARE [24]: 100%
2 | COc1ccc(C(=O)Nc2c(OC)c(Cl)cc(F)c2-c2nn(C)c(OC(F)F)c2Cl)cc1 [Compound 1-29] | 100 | 50 | 60 | 100 | 100 | 100 | 100 | 100 | 100 | 80 | 100 | 100 | 100 | 10 | 20 | 40 | 80 | 20 | 60 | 50 | growth controlling degrees (%) ORYSA [21]: 50%; growth controlling degrees (%) ECHOR [22]: 100%; growth controlling degree, ABUTH [23]: 95%; growth controlling degree, AMARE [24]: 100%
